# Data as given in patent US20210317141A1, “OXOPYRIDO[1,2-A]PYRIMIDINE COMPOUNDS FOR THE TREATMENT AND PROPHYLAXIS OF BACTERIAL INFECTION” (Hoffmann-La Roche Inc., priority 2018, published 2021).
# Tests used:
# E. coli (BW25113) = assay: 50% growth inhibitory concentration (IC50) determination assay, E. coli; type: cell-based; settings: Escherichia coli, growth inhibition, Iso-Sensitest broth, OD 600 nm over 16 h, 35±2° C., read-out: IC50 (μM) E. coli K12 BW25113
# Protocol: (§1) The in vitro antimicrobial activity of the compounds against E. coli (BW25113, obtained from Coli Genetic Stock Center, #7636) and K. pneumoniae (ATCC10031) was determined according to the following procedure:
# (§2) The assay used a 10-points Iso-Sensitest broth medium to measure quantitatively the in vitro activity of the compounds against E. coli BW25113 and K. pneumoniae ATCC 10031.
# (§3) Stock compounds in DMSO were serially two-fold diluted (range from 50 to 0.097 μM final concentration) in 384 wells microtiter plates and inoculated with 49 μL the bacterial suspension in Iso-Sensitest broth medium to have a final cell concentration of ˜5×10^5 CFU/mL in a final volume/well of 50 μL/well. Microtiter plates were incubated at 35±2° C.
# (§4) Bacterial cell growth was determined with the measurement of optical density at k=600 nm each 20 minutes over a time course of 16 h.
# (§5) Growth inhibition was calculated during the logarithmic growth of the bacterial cells with determination of the concentration inhibiting 50% (IC50) of the growth.
# [1] = test system: K. pneumoniae (ATCC10031); assay: 50% growth inhibitory concentration (IC50) determination assay, K. pneumoniae; type: cell-based; settings: Klebsiella pneumoniae, growth inhibition, Iso-Sensitest broth, OD 600 nm over 16 h, * = detection limit
# Protocol: as §1, §2, §3, §4, §5
# E. coli (ATCC 25922) = assay: Minimal Inhibitory Concentration (MIC) assay; type: cell-based; settings: Escherichia coli, ATCC25922; CAMHB, 20 hours at 35° C.; read-out: MIC (μg/mL) E. coli ATCC 25922
# Protocol: The in vitro potency of compounds to inhibit E. coli (ATCC 25922) growth was assessed by MIC (Minimal Inhibitory Concentration) assay. Samples were prepared from 10 mM DMSO stock solutions. After serial 2-fold dilution in DMSO in a master plate (Greiner, Cat No: 651201), 180 μL sterile distilled water was added to 20 μL each aliquot of the samples. Then […], diluted compounds were transferred into a new assay plate (Costar, 3599).
# The growth medium […] Mueller Hinton Broth (CAMHB) was prepared by adding the 20 mg per liter CaCl2) and 20 mg per liter MgCl2 into the MHB medium (Jianglai Company, sterilized).
# Vials of each of the test microorganisms were maintained frozen in the vapor phase of a liquid nitrogen freezer. Took out the bacteria E. coli ATCC 25922 (KWIKSTIK, 0335K) from liquid nitrogen freezer, thawed it in room temperature, and diluted the bacterial in the CAMHB medium to achieve a final inoculum of 5×10^5 CFU/mL. 90 μL CAMHB with bacteria was dispensed to the assay plate and pipetted 5 times.
# Then the assay plates were incubated for 20 hours at 35° C. in ambient air. Following incubation, the MIC (μg/mL), the lowest concentration of drug that inhibits visible growth of the microorganism was read and recorded throw the microscope.
# [2] = Cytotoxicity assay (HepG2, CellTiter-Blue); type: cell-based; settings: human, HepG2 cells, 3 days treatment
# Protocol: The cytotoxicity of compounds of present invention was assessed by HepG2 assay. HepG2 cells (ATCC HB-8065™) were seeded into 96-well plates (1.2×10^4 cells per well) and treated with compounds for 3 days, cell viability was measured at day 3 post compound treatment using the CellTiter-Blue® Cell Viability Assay (Promega, Cat. No. G8082). 20 μL of Cell titer blue buffer were added to each well of the cells, incubated for 3 hours at 37° C., and the fluorescence value was measured by a plate reader (Molecular Device SpectraMax M2). The CC50 value of each compound is plotted with GraphPad Prism using four parameter logistic equation.
# [3] = Lyophilisation solubility assay (LYSA); type: physicochemical; settings: aqueous buffer, thermodynamic from solid; 0.05 M phosphate buffer, pH 6.5; * = detection limit
# Protocol: The solubility of compounds of present invention was assessed by LYSA assay. Samples were prepared in duplicate from 10 mM DMSO stock solutions (20 μL) diluted in 30 μL pure DMSO. After evaporation of DMSO with a centrifugal vacuum evaporator, the residue was dissolved in 0.05 M phosphate buffer (150 μL, pH 6.5), stirred for one hour and shook for two hours. After one night, the solution was filtered using a microtiter filter plate. Then the filtrate and its 1/10 dilution were analyzed by HPLC-UV. In addition, a four-point calibration curve was prepared from the 10 mM stock solutions and used for the solubility determination of the compounds.
Structure (SMILES),IC50 (E. coli (BW25113)) [µM],IC50 [1] [µM],MIC (E. coli (ATCC 25922)) [µg/mL],CC50 at 3 days [2] [nM],solubility thermodynamic [3] [µg/mL]
"CNc1c(F)c(F)cc2c1[nH]c1ncc(-c3ccc4ncc(C(=O)O)c(=O)n4c3)c(N(C)C)c12 [Example 1.12, 7-(4-(Dimethylamino)-6,7-difluoro-8-(methylamino)-9H-pyrido[2,3-b]indol-3-yl)-4-oxo-4H-pyrido[1,2-a]pyrimidine-3-carboxylic]",0.442,≤ 0.098,0.0212,29900,
"CCNc1cc(F)cc2c1[nH]c1ncc(-c3ccn4c(=O)c(C(=O)O)cnc4c3)c(-n3ccc(C(F)(F)F)n3)c12 [Example 1.31, 8-[8-(Ethylamino)-6-fluoro-4-[3-(trifluoromethyl)pyrazol-1-yl]-9H-pyrido[2,3-b]indol-3-yl]-4-oxo-pyrido[1,2-a]pyrimidine-3-carboxylic acid]",,,,30800,
"CNc1c(F)c(F)cc2c1[nH]c1ncc(-c3ccc4ncc(C(=O)O)c(=O)n4c3)c(N3CCC[C@H]3CN(C)C)c12 [Example 1.26, (S)-7-(4-(2-((Dimethylamino)methyl)pyrrolidin-1-yl)-6,7-difluoro-8-(methylamino)-9H-pyrido[2,3-b]indol-3-yl)-4-oxo-4H-pyrido[1,2-a]pyrimidine-3-carboxylic acid]",,,,> 100000,> 770
"CNc1cc(F)cc2c1[nH]c1ncc(-c3ccc4ncc(C(=O)O)c(=O)n4c3)c(C#N)c12 [Example 1.34, 7-[4-Cyano-6-fluoro-8-(methylamino)-9H-pyrido[2,3-b]indol-3-yl]-4-oxo-pyrido[1,2-a]pyrimidine-3-carboxylic acid]",,,0.364,> 100000,
"CNc1cc(F)c(F)c2c1[nH]c1ncc(-c3cc(CN4CCOCC4)c4ncc(C(=O)O)c(=O)n4c3)c(N(C)C)c12 [Example 2.01, 7-[4-(Dimethylamino)-5,6-difluoro-8-(methylamino)-9H-pyrido[2,3-b]indol-3-yl]-9-(morpholinomethyl)-4-oxo-pyrido[1,2-a]pyrimidine-3-carboxylic Acid]",0.523,≤ 0.098,0.0223,,36
"CNc1cc(F)c(F)c2c1[nH]c1ncc(-c3ccc4ncc(C(=O)O)c(=O)n4c3)c(N(C)C)c12 [Example 1.01, 7-[4-(Dimethylamino)-5,6-difluoro-8-(methylamino)-9H-pyrido[2,3-b]indol-3-yl]-4-oxo-pyrido[1,2-a]pyrimidine-3-carboxylic Acid]",0.906,,0.0183,45900,30
"CNc1cc(F)cc2c1[nH]c1ncc(-c3cc(C)c4ncc(C(=O)O)c(=O)n4c3)c(N(C)C)c12 [Example 1.05, 7-[4-(Dimethylamino)-6-fliioro-8-(methylamino)-9H-pyrido[2,3-b]indol-3-yl]-9-methyl-4-oxo-pyrido[1,2-a]pyrimidine-3-carboxylic acid]",2.06,0.221,0.576,34000,
"CNc1cc(F)c(F)c2c1[nH]c1ncc(-c3cc(CN(C)C)c4ncc(C(=O)O)c(=O)n4c3)c(N3CCOCC3)c12 [Example 1.14, 7-(5,6-Difluoro-8-(methylamino)-4-morpholino-9H-pyrido[2,3-b]indol-3-yl)-9-((dimethylamino)methyl)-4-oxo-4H-pyrido[1,2-a]pyrimidine-3-carboxylic acid]",8.58,0.197,,> 100000,315
"CNc1cc(F)c(F)c2c1[nH]c1ncc(-c3cc(CN(C)CCOC)c4ncc(C(=O)O)c(=O)n4c3)c(N(C)C)c12 [Example 2.02, 7-[4-(Dimethylamino)-5,6-difluoro-8-(methylamino)-9H-pyrido[2,3-b]indol-3-yl]-9-[[2-methoxyethyl(methyl)amino]methyl]-4-oxo-pyrido[1,2-a]pyrimidine-3-carboxylic acid]",0.738,≤ 0.098,0.0996,,255
"CNc1cc(F)c(F)c2c1[nH]c1ncc(-c3ccc4ncc(C(=O)O)c(=O)n4c3)c(N(C)CC(F)(F)F)c12 [Example 1.09, 7-(5,6-Difluoro-4-(methyl(2,2,2-trifluoroethyl)amino)-8-(methylamino)-9H-pyrido[2,3-b]indol-3-yl)-4-oxo-4H-pyrido[1,2-a]pyrimidine-3-carboxylic acid]",2.57,0.284,0.808,33400,
"CNc1cc(F)c(F)c2c1[nH]c1ncc(-c3ccc4ncc(C(=O)O)c(=O)n4c3)c(N3CCC(F)(CN(C)C)C3)c12 (centres unmarked) [Example 1.18, 7-(4-(3-((Dimethylamino)methyl)-3-fluoropyrrolidin-1-yl)-5,6-difluoro-8-(methylamino)-9H-pyrido[2,3-b]indol-3-yl)-4-oxo-4H-pyrido[1,2-a]pyrimidine-3-carboxylic acid]",,,0.398,> 100000,200
"CNc1cc(F)cc2c1[nH]c1ncc(-c3ccc4ncc(C(=O)O)c(=O)n4c3)c(N3CCC(F)(F)C3)c12 [Example 2.05, 7-(4-(3,3-Difluoropyrrolidin-1-yl)-6-fluoro-8-(methylamino)-9H-pyrido[2,3-b]indol-3-yl)-4-oxo-4H-pyrido[1,2-a]pyrimidine-3-carboxylic acid]",,,,31800,
"CNc1c(F)cc(F)c2c1[nH]c1ncc(-c3ccc4ncc(C(=O)O)c(=O)n4c3)c(N(C)C)c12 [Example 1.17, 7-(4-(Dimethylamino)-5,7-difluoro-8-(methylamino)-9H-pyrido[2,3-b]indol-3-yl)-4-oxo-4H-pyrido[1,2-a]pyrimidine-3-carboxylic acid]",0.497,≤ 0.098,0.0847,,60
"CNc1cc(F)c(F)c2c1[nH]c1ncc(-c3ccc4ncc(C(=O)O)c(=O)n4c3)c(N(C)CCOC)c12 [Example 1.24, 7-(5,6-Difluoro-4-((2-methoxyethyl)(methyl)amino)-8-(methylamino)-9H-pyrido[2,3-b]indol-3-yl)-4-oxo-4H-pyrido[1,2-a]pyrimidine-3-carboxylic acid]",2.23,0.105,,71000,22
"CNc1cc(F)c(F)c2c1[nH]c1ncc(-c3cc(CN(C)C)c4ncc(C(=O)O)c(=O)n4c3)c(N3CCCC3)c12 [Example 1.15, 7-(5,6-Difluoro-8-(methylamino)-4-(pyrrolidin-1-yl)-9H-pyrido[2,3-b]indol-3-yl)-9-((dimethylamino)methyl)-4-oxo-4H-pyrido[1,2-a]pyrimidine-3-carboxylic acid]",0.663,≤ 0.098,0.152,,19
"CNc1cc(F)c(F)c2c1[nH]c1ncc(-c3cc(CN4CCCC4)c4ncc(C(=O)O)c(=O)n4c3)c(N(C)C)c12 [Example 2.03, 7-[4-(Dimethylamino)-5,6-difluoro-8-(methylamino)-9H-pyrido[2,3-b]indol-3-yl]-4-oxo-9-(pyrrolidin-1-ylmethyl)pyrido[1,2-a]pyrimidine-3-carboxylic acid]",0.748,≤ 0.098,0.194,,51
